The values that follow come from ChEMBL document CHEMBL4732126, “Design, synthesis, and biodistribution studies of new analogues of marine alkaloids: Potent in vitro and in vivo fungicidal agents against Candida spp” (Eur J Med Chem, 2021).

≈ marks a conversion by molar mass, not a printed value. Calls of active or inactive are those of the source. The rule behind the calls is not given here.

A short description of data set [1]: Toxicity in Swiss mouse assessed as relative kidney weight at 1 mg/kg, ip measured after 24 hrs (reference value: 14.91 +/- 0.99 g). The class given is organism-based. The following applies: in vivo.
The test system of data set [2] is Candida albicans. Put plainly: Fungicidal activity against Candida albicans ATCC 10231 assessed as reduction in fungal load at 1 ug/ml incubated for 8 hrs followed by inoculation on SD agar plate for 48 hrs by time-kill assay. The following applies: dose 1.0 µg/ml, time 56.0 hrs. The format is functional, organism-based.
Data set [3] concerns Candida albicans. Put plainly: Antifungal activity against Candida albicans isolate 2 assessed as reduction in fungal growth incubated for 48 hrs by broth microdilution method. The format is functional. (In general: Dilution methods test growth across graded concentrations, often in twofold steps.)
In data set [4] the test system is Candida albicans. Put plainly: In vivo antifungal activity in Swiss mouse infected with Candida albicans ATCC 10231 assessed as reduction in fungal load in spleen at 10 mg/kg, ip administered at 2, 24 and 48 hrs post-infection and measured per gm of organ at 24 hrs post-last dose (reference value: 2.34). The format is functional, organism-based. The following applies: time 72.0 hrs.

Data set [5] is described as follows: Toxicity in Swiss mouse assessed as relative spleen weight at 1 mg/kg, ip measured after 24 hrs (reference value: 4.02 +/- 0.59 g). The following applies: in vivo. The format is organism-based.
Data set [6] concerns Candida albicans. Put plainly: Fungicidal activity against Candida albicans isolate 2 assessed as fungal killing incubated for 48 hrs followed by plating on SD agar plate. The format is functional. The following applies: read-out: MFC99.9.
In data set [7] the test system is Candida albicans. Put plainly: Antifungal activity against Candida albicans isolate 3 assessed as reduction in fungal growth incubated for 48 hrs by broth microdilution method. The format is functional.
In data set [8] the test system is Candida albicans. Put plainly: In vivo antifungal activity in Swiss mouse infected with Candida albicans ATCC 10231 assessed as reduction in fungal load in liver at 1 mg/kg, ip administered at 2, 24 and 48 hrs post-infection and measured per gm of organ at 24 hrs post-last dose (reference value: 1.80). The format is functional. The following applies: time 72.0 hrs.

The nature of data set [9]: Toxicity in Swiss mouse assessed as relative heart weight at 1 mg/kg, ip measured after 24 hrs (reference value: 4.75 +/- 0.60 g). The class given is organism-based. The following applies: in vivo.
For data set [10], the system named is Candida albicans. Put plainly: Antifungal activity against Candida albicans isolate 1 assessed as reduction in fungal growth incubated for 48 hrs by broth microdilution method. The class given is functional.
Data set [11] relates to Candida albicans. The data set is described as follows: In vivo antifungal activity in Swiss mouse infected with Candida albicans ATCC 10231 assessed as reduction in fungal load in liver at 10 mg/kg, ip administered at 2, 24 and 48 hrs post-infection and measured per gm of organ at 24 hrs post-last dose (reference value: 1.80). The class given is functional. The following applies: time 72 hrs.

The nature of data set [12]: Toxicity in Swiss mouse assessed as relative lung weight at 1 mg/kg, ip measured after 24 hrs (reference value: 6.35 +/- 0.68 g). The format is organism-based. The following applies: in vivo.
Data set [13] relates to Candida albicans. The data set is described as follows: Antifungal activity against Candida albicans isolate 4 assessed as reduction in fungal growth incubated for 48 hrs by broth microdilution method. The class given is functional.
Data set [14] can be described thus: Toxicity in Swiss mouse assessed as relative liver weight at 1 mg/kg, ip measured after 24 hrs (reference value: 49.42 +/- 7.17 g). The format is organism-based. The following applies: in vivo.
In data set [15] the test system is Candida albicans. The data set is described as follows: Fungicidal activity against Candida albicans isolate 3 assessed as fungal killing incubated for 48 hrs followed by plating on SD agar plate. The format is functional. The following applies: read-out: MFC99.9.
The subject of data set [16] is Candida albicans. Put plainly: Fungicidal activity against Candida albicans isolate 4 assessed as fungal killing incubated for 48 hrs followed by plating on SD agar plate. The format is functional. The following applies: read-out: MFC99.9.
The subject of data set [17] is Candida albicans. The data set is described as follows: Fungicidal activity against Candida albicans isolate 5 assessed as fungal killing incubated for 48 hrs followed by plating on SD agar plate. The class given is functional. The following applies: read-out: MFC99.9.
The test system of data set [18] is Candida albicans. Put plainly: Antifungal activity against Candida albicans isolate 5 assessed as reduction in fungal growth incubated for 48 hrs by broth microdilution method. The class given is functional.
Data set [19] has as its system Candida albicans. The data set is described as follows: In vivo antifungal activity in Swiss mouse infected with Candida albicans ATCC 10231 assessed as reduction in fungal load in kidney at 10 mg/kg, ip administered at 2, 24 and 48 hrs post-infection and measured per gm of organ at 24 hrs post-last dose (reference value: 2.47). The class given is functional, organism-based. The following applies: time 72.0 hrs.

Data set [20] in a line: Toxicity in Swiss mouse assessed as body weight at 1 mg/kg, ip measured after 24 hrs (reference value: 36.25 +/- 0.31 g). The format is organism-based. The following applies: in vivo.
The subject of data set [21] is Candida albicans. The data set is described as follows: Fungicidal activity against Candida albicans isolate 1 assessed as fungal killing incubated for 48 hrs followed by plating on SD agar plate. The format is functional. The following applies: read-out: MFC99.9.
The test system of data set [22] is Candida albicans. The data set is described as follows: In vivo antifungal activity in Swiss mouse infected with Candida albicans ATCC 10231 assessed as reduction in fungal load in kidney at 1 mg/kg, ip administered at 2, 24 and 48 hrs post-infection and measured per gm of organ at 24 hrs post-last dose (reference value: 2.47). The class given is functional. The following applies: time 72.0 hrs.

In data set [23] the test system is Candida albicans. Put plainly: In vivo antifungal activity in Swiss mouse infected with Candida albicans ATCC 10231 assessed as reduction in fungal load in spleen at 1 mg/kg, ip administered at 2, 24 and 48 hrs post-infection and measured per gm of organ at 24 hrs post-last dose (reference value: 2.34). The format is functional. The following applies: time 72.0 hrs.

By MIC is commonly meant the least concentration at which growth counts as inhibited. Take `C[C@@H]1[C@H](O)[C@@H](C)/C=C/C=C/C=C/C=C/C=C/C=C/C=C/[C@H](O[C@@H]2O[C@H](C)[C@@H](O)[C@H](N)[C@@H]2O)C[C@@H]2O[C@](O)(C[C@@H](O)C[C@@H](O)[C@H](O)CC[C@@H](O)C[C@@H](O)CC(=O)O[C@H]1C)C[C@H](O)[C@H]2C(=O)O` [AMPHOTERICIN B]: the Activity in data set [1] came to 15.56 g; in data set [5], 4.14 g; in data set [9] it was 5.94 g; in the data set on Candida albicans [11] it was 1.51 log10CFU; in [12], 6.51 g; in [14], 49.34 g. In addition, in [20], the Activity was 31.12 g. Also, the result in the data set on Candida albicans [2], in the data set on Candida albicans [4], in the data set on Candida albicans [8], in the data set with Candida albicans [19], in the data set with Candida albicans [22] and in the data set with Candida albicans [23] was Active. Moreover, the MIC with Candida albicans [3] turned out to be 39 µg/mL (≈ 42.2 µM); in the data set on Candida albicans [7], 39 µg/mL (≈ 42.2 µM); in the data set with Candida albicans [10], 39 µg/mL (≈ 42.2 µM); in the data set on Candida albicans [13], 156 µg/mL (≈ 169 µM); with Candida albicans [18], 39 µg/mL (≈ 42.2 µM). For the same compound, the MFC in the data set on Candida albicans [6] worked out at 312 µg/mL (≈ 338 µM); in the data set on Candida albicans [15], 39 µg/mL (≈ 42.2 µM); in the data set with Candida albicans [16], 625 µg/mL (≈ 676 µM); with Candida albicans [17], 78.1 µg/mL (≈ 84.5 µM); in the data set with Candida albicans [21], 78.1 µg/mL (≈ 84.5 µM).
